# In patent publication US5223486A, “Inhibition of cancer procoagulant” (University Research Corporation, priority 1991, dated 1993):
# Where two headings read alike, the source gives them in different places. Where a SMILES comes first, the peptide text is derived from it. [ ]: non-standard residue; d: D form. The star is where a group is joined. ξ: configuration not given here. ξF = NC(Cc1ccccc1)C(=O)O; Cbz = O=C(OCc1ccccc1)*; ξV = CC(C)C(N)C(=O)O; CHN2 = [N-]=[N+]=C*; ξP = O=C(O)C1CCCN1; tBu = CC(C)(C)*
# What was measured:
# [1] = tested on: cancer procoagulant (CP); experiment: one-stage plasma recalcification clotting time assay, inhibition of CP procoagulant activity; format: biochemical, rabbit; details: for percent inhibition of CP: 30 min at 25° C.
# [2] = tested on: RVV (Russell's viper venom); experiment: one-stage plasma recalcification clotting time assay, RVV control procoagulant; format: biochemical; details: 30 min at 25° C.; for percent inhibition of RVV (negative = slight activation): 200 μM peptidyl diazomethyl ketone; for effect on activity of RVV: 400 μM peptidyl sulfonium salt
# Description: (§1) If the volume of the sample was too small, 0.05 ml of the sample was used with proportional reduction in the volume of the other reagents. […] These dilutions of RVV were used to calibrate the assay plasma and to verify linearity of the clotting times over the range of procoagulant activity.
# (§2) The procoagulant activity of the samples was expressed as clotting time in seconds or as the percent activity, calculated as the percent reduction of clotting time (CT) from the corresponding buffer blank [(blank time (sec)-sample clotting time (sec))/ blank time (sec)]×100. The percent inhibition of the control and experimental procoagulants by the peptidyl diazomethyl ketone and peptidyl sulfonium salt inhibitors was expressed as the percent increase in the clotting time compared with the uninhibited sample [(inhibited CT-uninhibited CT)/uninhibited CT]×100.
# (§3) Papain, a factor X activator and cysteine proteinase standard, RVV (Russell's viper venom) and rabbit brain thromboplastin, a tissue factor (TF) standard, were purchased from Sigma Chemical Co. (St. Louis, MO). To determine the effect of the peptidyl diazomethyl ketone and peptidyl sulfonium salt inhibitors on CP, the control procoagulants (Papain, RVV and TF), and the assay plasma system, the procoagulant activity of the samples and controls was analyzed with and without the addition of different concentrations of the inhibitors. […] Peptidyl diazomethyl ketone inhibitors were incubated with the procoagulant samples at a final concentration of 400 μM, 200 μM, 100 μM, 10 μM and 1 μM. Peptidyl sulfonium salt inhibitors were incubated with the samples at a final concentration of 800 μM, as well as the same concentrations as the diazomethyl ketones. At the end of the inhibition incubation, each sample was analyzed in the coagulation assay.
# [3] = target: T1, papain (Carica papaya, UniProt P00784); format: biochemical; details: 30 min at 25° C.
# T1 construct: purchased Sigma Chemical Co. (St. Louis, MO)
# T1 sequence (P00784 134-345): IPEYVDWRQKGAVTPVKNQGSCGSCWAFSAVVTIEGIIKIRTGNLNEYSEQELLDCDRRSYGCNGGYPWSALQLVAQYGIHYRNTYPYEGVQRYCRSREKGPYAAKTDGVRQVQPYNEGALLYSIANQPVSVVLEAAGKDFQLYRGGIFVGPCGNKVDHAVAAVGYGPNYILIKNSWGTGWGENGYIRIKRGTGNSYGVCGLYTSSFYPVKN
# Description: as §1, §2, §3
# [4] = target: T2, rabbit brain thromboplastin, a tissue factor (TF) standard (Oryctolagus cuniculus, UniProt P24055); experiment: one-stage plasma recalcification clotting time assay, TF control procoagulant; format: biochemical; details: 30 min at 25° C.; for inhibition of TF: 200 μM peptidyl diazomethyl ketone; for enhancement of TF activity (negative inhibition): 400 μM peptidyl sulfonium salt
# T2 construct: rabbit brain thromboplastin, a tissue factor (TF) standard; purchased Sigma Chemical Co. (St. Louis, MO); host or cells: rabbit brain
# T2 sequence (P24055 33-292): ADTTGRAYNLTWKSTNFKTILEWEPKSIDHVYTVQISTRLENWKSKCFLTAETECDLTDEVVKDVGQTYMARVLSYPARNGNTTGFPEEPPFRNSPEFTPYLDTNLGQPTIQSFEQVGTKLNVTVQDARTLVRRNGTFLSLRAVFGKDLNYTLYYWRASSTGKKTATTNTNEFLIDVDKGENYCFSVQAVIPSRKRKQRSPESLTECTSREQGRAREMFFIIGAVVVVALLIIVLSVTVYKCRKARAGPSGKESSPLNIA
# Description: as §1, with “The procoagulant activity of the samples and the controls was measured in a one-stage plasma recalcification clotting time assay using a model 202A clot timer (Heller Laboratories, Santa Rose, CA). […] If” for “If”
# as §2, §3
# Each CP or control sample was adjusted to a concentration such that the procoagulant activity reduced the clotting time of the blank assay plasma from 10% to 30%, within the linear range of the assay (Gordon et al. (1979) J. Natl. Cancer Inst. 62:773-776).
# [5] = tested on: small cell carcinoma of the lung; details: patients with small cell carcinoma of the lung; cited from earlier work
# [6] = tested on: control procoagulants (TF, RVV and Papain); experiment: effect on the coagulation controls and the assay plasma; format: biochemical; details: compared with D1-D3 results of FIG. 1
# Description: The procoagulant activity of the samples and the controls was measured in a one-stage plasma recalcification clotting time assay using a model 202A clot timer (Heller Laboratories, Santa Rose, CA). […]. If the volume of the sample was too small, 0.05 ml of the sample was used with proportional reduction in the volume of the other reagents. […]. These dilutions of RVV were used to calibrate the assay plasma and to verify linearity of the clotting times over the range of procoagulant activity.
# as §2
# Papain, a factor X activator and cysteine proteinase standard, RVV (Russell's viper venom) and rabbit brain thromboplastin, a tissue factor (TF) standard, were purchased from Sigma Chemical Co. (St. Louis, MO). To determine the effect of the peptidyl diazomethyl ketone and peptidyl sulfonium salt inhibitors on CP, the control procoagulants (Papain, RVV and TF), and the assay plasma system, the procoagulant activity of the samples and controls was analyzed with and without the addition of different concentrations of the inhibitors. […]; there was no effect of these solvents on the assay plasma activity. Preliminary experiments evaluated the time (15, 30 and 50 min) and temperature (25° C. and 37° C.) of the inhibition reaction; 30 min at 25° C. was selected as the optimum conditions and was used for the subsequent studies. […] At the end of the inhibition incubation, each sample was analyzed in the coagulation assay. […]
# [7] = tested on: cathepsin L; details: cathepsin B from rat and human; substrate Z-Phe-Arg-4-methyl-7-coumarylamide; cited from earlier work
# [8] = target: clostripain (Hathewaya histolytica, UniProt P09870); details: cited from earlier work
# [9] = tested on: isolated rat hepatocytes; details: 10^-5 M; cited from earlier work
# [10] = tested on: cancer procoagulant (CP); format: biochemical, human
# Description: Fresh human placenta was obtained from the delivery deck, the amnion-chorion membranes were removed from the placental tissue and extracted in 3 to 4 changes of 20 mM veronal buffer (pH 7.4) as described in Gordon et al. (1985) Blood 66:1261-1265. The extracts were purified over an anti-Cp antibody affinity column. The purified CP sample was assayed for procoagulant activity by measuring clotting time of normal and factor VII deficient citrated plasma. […] To assure that there was no tissue factor-factor VIIa activity in the preparation, 5 μl (1.3 mg/ml) of rabbit polyclonal anti-tissue factor antibody was added to the sample and incubated for 30 min. at 25° C.
# [11] = target: cathepsin B (Homo sapiens, UniProt P07858); details: cited from earlier work
# [12] = target: cathepsin L (Homo sapiens, UniProt P07711); details: cited from earlier work
# [13] = tested on: nonsmall cell lung cancer; details: patients with nonsmall cell lung cancer limited to one hemithorax; cited from earlier work
# Sequence of clostripain (P09870 191-526): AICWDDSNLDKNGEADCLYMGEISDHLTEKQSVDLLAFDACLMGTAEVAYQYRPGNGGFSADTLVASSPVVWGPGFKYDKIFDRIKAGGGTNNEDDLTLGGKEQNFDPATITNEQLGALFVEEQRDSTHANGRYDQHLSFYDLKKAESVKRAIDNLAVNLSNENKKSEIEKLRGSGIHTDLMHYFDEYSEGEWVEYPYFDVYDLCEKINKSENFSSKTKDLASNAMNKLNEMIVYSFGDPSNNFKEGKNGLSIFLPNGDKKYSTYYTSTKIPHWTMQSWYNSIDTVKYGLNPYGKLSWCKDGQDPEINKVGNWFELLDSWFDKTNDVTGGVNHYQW
# Sequence of clostripain (P09870 51-181): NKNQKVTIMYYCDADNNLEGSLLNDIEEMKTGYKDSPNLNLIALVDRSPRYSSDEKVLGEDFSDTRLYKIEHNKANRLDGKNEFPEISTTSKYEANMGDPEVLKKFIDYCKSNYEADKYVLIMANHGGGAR
# Sequence of cathepsin L (Homo sapiens, UniProt P07711) (P07711 114-333, species assumed): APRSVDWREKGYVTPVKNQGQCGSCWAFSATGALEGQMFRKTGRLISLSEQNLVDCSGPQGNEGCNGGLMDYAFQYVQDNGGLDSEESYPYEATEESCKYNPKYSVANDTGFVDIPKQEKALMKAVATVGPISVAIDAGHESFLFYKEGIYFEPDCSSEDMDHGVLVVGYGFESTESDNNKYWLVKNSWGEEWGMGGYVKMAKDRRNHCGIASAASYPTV
compound,measurement,setting,value
"[N-]=[N+]=CC(=O)CNC(=O)C(Cc1ccccc1)NC(=O)OCc1ccccc1 (stereo not shown) [D2, Z-Phe-Gly diazomethyl ketone] (Cbz-[ξF]-Gly-CHN2)",percent inhibition of CP,[1]; 100 μM inhibitor,97%
same,percent inhibition of RVV (negative = slight activation),[2],-10% to -13%
same,percent inhibition of papain,[3]; 100 μM inhibitor,88%
same,percent inhibition of papain,[3]; 200 μM inhibitor,97%
same,inhibition of TF,[4],no significant inhibition
CC(=O)CC(c1ccccc1)c1c(O)c2ccccc2oc1=O (stereo not shown) [Warfarin],survival,[5],significant improvement
same,time to first evidence disease progression,[5],significant prolongation
"CC(NC(=O)C(C)NC(=O)OCc1ccccc1)C(=O)C=[N+]=[N-] (stereo not shown) [D6, Z-Ala-Ala diazomethyl ketone]",effect on the coagulation controls and the assay plasma,[6],essentially the same results
same,percent inhibition of CP,[1]; 100 μM inhibitor,92%
same,percent inhibition of papain,[3]; 100 μM inhibitor,31%
"C[C@H](NC(=O)[C@H](Cc1ccccc1)NC(=O)OCc1ccccc1)C(=O)C=[N+]=[N-] [D1, Z-Phe-Ala diazomethyl ketone]",percent inhibition of CP,[1]; 100 μM inhibitor,68%
same,inhibition of CP by D1 relative to S1 (times greater),"[1]; same concentration (100 μM), same peptide",~3 times
same,percent inhibition of RVV (negative = slight activation),[2],-10% to -13%
same,percent inhibition of papain,[3]; 100 μM inhibitor,85%
same,percent inhibition of papain,[3]; 200 μM inhibitor,97%
same,affinity for cathepsin L relative to cathepsin B,[7],about 2000 fold
same,reactivity toward clostripain,[8],absolutely inert
same,inhibition of protein synthesis,[9],21%
same,inhibition of TF,[4],no significant inhibition
"CC(NC(=O)OCc1ccccc1)C(=O)NC(C)C(=O)N1CCCC1C(=O)C=[N+]=[N-] (stereo not drawn) [D5, Z-Ala-Ala-Pro diazomethyl ketone] (Cbz-Ala-Ala-Pro-CHN2; configuration not given here)",effect on the coagulation controls and the assay plasma,[6],essentially the same results
same,percent inhibition of CP,[1]; 100 μM inhibitor,~62%
same,percent inhibition of papain,[3]; 100 μM inhibitor,2%
"CC(C)C(NC(=O)CNC(=O)CNC(=O)OCc1ccccc1)C(=O)C=[N+]=[N-] (stereo not drawn) [D4, Z-Gly-Gly-Val diazomethyl ketone] (Cbz-Gly-Gly-[ξV]-CHN2)",effect on the coagulation controls and the assay plasma,[6],essentially the same results
same,percent inhibition of CP,[1]; 100 μM inhibitor,about 48%
same,percent inhibition of papain,[3]; 100 μM inhibitor,2%
HgCl2 [Hg^++],inhibition of procoagulant activity of purified CP,"[10]; 1 mM iodoacetamide in water, 0.1 mM HgCl2 in water",all the procoagulant activity was inhibited
"NC(=O)CI [iodacetamide, iodoacetamide]",inhibition of procoagulant activity of purified CP,[10],all the procoagulant activity was inhibited
[N-]=[N+]=CC(=O)C(CCCCN)NC(=O)OCc1ccccc1 (stereo not shown) [Z-Lys diazomethyl ketone],inhibition of cathepsin B,[11],powerful inhibitor
CC(C)(C)Oc1ccc(C[C@H](NC(=O)[C@H](Cc2ccccc2)NC(=O)OCc2ccccc2)C(=O)C=[N+]=[N-])cc1 [Z-Phe-Tyr(O-t-Bu) diazomethyl ketone] (Cbz-Phe-Tyr(tBu)-CHN2),rate of inactivation of cathepsin L relative to cathepsin B,[12],2.5×10^4
Z-Phe-Ala-CH2 -S^+ (CH3)2 bromide [S1],percent inhibition of CP,[1]; 10 μM inhibitor,no inhibition
same,percent inhibition of CP,[1]; 100 μM inhibitor,26%
same,percent inhibition of CP,[1]; 200 μM inhibitor,51%
same,percent inhibition of CP,[1]; 400 μM inhibitor,62%
same,effect on activity of RVV,[2],Neither S1 nor S2 affected the activity of RVV
same,percent inhibition of papain,[3]; 10 μM inhibitor,55%
same,percent inhibition of papain,[3]; 100 μM inhibitor,completely inhibited
same,percent inhibition of papain,[3]; 200 μM inhibitor,completely inhibited
same,enhancement of TF activity (negative inhibition),[4],5%
"[N-]=[N+]=CC(=O)CNC(=O)C1CCCN1C(=O)OCc1ccccc1 (stereo not shown) [D3, Z-Pro-Gly diazomethyl ketone] (Cbz-[ξP]-Gly-CHN2)",percent inhibition of RVV (negative = slight activation),[2],-10% to -13%
same,percent inhibition of papain,[3]; 100 μM inhibitor,15%
same,percent inhibition of papain,[3]; 200 μM inhibitor,88%
same,inhibition of TF,[4],no significant inhibition
"OCCN(CCO)c1nc(N2CCCCC2)c2nc(N(CCO)CCO)ncc2n1 [RA-233, mopidamol]",survival,[13],statistically significant prolongation of survival
Z-Phe-Lys-CH2 -S^+ (CH3)2 bromide [S2],percent inhibition of CP,[1]; 10 μM inhibitor,no inhibition
same,percent inhibition of CP,[1]; 100 μM inhibitor,33%
same,percent inhibition of CP,[1]; 200 μM inhibitor,54%
same,percent inhibition of CP,[1]; 400 μM inhibitor,72%
same,effect on activity of RVV,[2],Neither S1 nor S2 affected the activity of RVV
same,percent inhibition of papain,[3]; 10 μM inhibitor,20%
same,percent inhibition of papain,[3]; 100 μM inhibitor,almost the same effect
same,percent inhibition of papain,[3]; 200 μM inhibitor,almost the same effect
same,enhancement of TF activity (negative inhibition),[4],8%
